Assay results reported in patent US5536714A, “Steroid derivatives for the treatment of prostatic hypertrophy their preparation and uses” (Sankyo Company, Limited, priority 1992, dated 1996).

Test system: Rat 5α-Reductase
Experiment: Rat 5α-Reductase Inhibition Test
Assay type: biochemical, rat (Sprague-Dawley, ventral prostate)
Settings: final concentration of test compound 10^-8 M; 1 μM [14C]-testosterone; pH 6.5; 37° C., 15 to 30 minutes
Method: The tissue was then homogenized, first with a Polytron (trade mark) homogenizer (manufactured by Kinematica, GmbH) and then with a Teflon-glass homogenizer (Teflon is a trade mark). The suspension of homogenized prostate tissue was then centrifuged (140000×g, 60 minutes), and the sediment was suspended by adding approximately a 5-fold amount of the above buffer. The suspension was again centrifuged (140000×g, 60 minutes). […] This was adjusted to a protein concentration of 30 to 40 mg/ml by the addition of the buffer described above, and the preparation was then stored frozen at -80° C. Measurement of the amount of protein was performed using the Bio-Rad Protein Assay method, and bovine γ-globulin (Cohn Fraction II, manufactured by Sigma) was used for the protein reference standard. […] The mixture was then incubated at 37° C. for 15 to 30 minutes. Testing was also performed on a control group by adding solvent only. Following incubation, 2 ml of ethyl acetate, containing 10 μg each of testosterone, 5α-dihydrotestosterone and androstenedione, were added to stop the reaction. […] The steroid was dissolved in 40 μl of ethyl acetate and spotted onto a thin layer chromatographic plate (LK5DF silica plate, manufactured by Whatman). The plate was then developed twice at room temperature with a mixture of ethyl acetate and cyclohexane (1:1 by volume). The steroid fraction was identified with ultraviolet light and stained using an aqueous solution of 1% w/v […] and 10% w/v sulfuric acid. The radioactivity profiles of the thin layer chromatographic plate were measured using a bio-image analyzer (manufactured by Fuji Photo Film). Enzyme activity was expressed as the proportion of [^14 C]-5α-dihydrotestosterone that was converted from the [^14 C]-testosterone (conversion rate (%)) added. […]

Inhibitory Activity [%] | SMILES
77.9 | COc1cccc(C(C)(C)NC(=O)[C@H]2CC[C@H]3[C@@H]4CC=C5C=C(C(=O)O)CC[C@]5(C)[C@H]4CC[C@]23C)c1 [Example 9, 17β-{N-[1-(3-Methoxyphenyl)-1-methylethyl]carbamoyl}androsta-3,5-diene-3-carboxylic acid]
73.5 | Cc1ccc(C(C)(C)NC(=O)[C@H]2CC[C@H]3[C@@H]4CC=C5C=C(C(=O)O)CC[C@]5(C)[C@H]4CC[C@]23C)cc1 [Example 11, 17β-{N-[1-(4-Methylphenyl)-1-methylethyl]carbamoyl}androsta-3,5-diene-3-carboxylic acid]
84.3 | CCOc1ccc(C(C)(C)NC(=O)[C@H]2CC[C@H]3[C@@H]4CC=C5C=C(C(=O)O)CC[C@]5(C)[C@H]4CC[C@]23C)cc1 [Example 13, 17β-{N-[1-(4-Ethoxyphenyl)-1-methylethyl]carbamoyl}androsta-3,5-diene-3-carboxylic acid]
70.6 | COc1ccc(C(C)(C)NC(=O)[C@H]2CC[C@H]3[C@@H]4CC=C5C=C(C(=O)O)CC[C@]5(C)[C@H]4CC[C@]23C)cc1 [Example 2, 17β-{N-[1-(4-Methoxyphenyl)-1-methylethyl]carbamoyl}androsta-3,5-diene-3-carboxylic acid]
70.3 | COc1ccc(C(C)(C)NC(=O)[C@H]2CC[C@H]3[C@@H]4CC=C5C=C(C(=O)O)CC[C@]5(C)[C@H]4CC[C@]23C)cc1OC [Example 7, 17β-{N-[1-(3,4-Dimethoxyphenyl)-1-methylethyl]carbamoyl}androsta-3,5-diene-3-carboxylic acid]

More lines, now with the values behind:

SMILES | Inhibitory Activity [%]
CCC(CC)(NC(=O)[C@H]1CC[C@H]2[C@@H]3CC=C4C=C(C(=O)O)CC[C@]4(C)[C@H]3CC[C@]12C)c1ccccc1 [Example 12, 17β-[N-(1-Ethyl-1-phenylpropyl)carbamoyl]androsta-3,5-diene-3-carboxylic acid] | 74.0
C[C@]12CC[C@H]3[C@@H](CC=C4C=C(C(=O)O)CC[C@@]43C)[C@@H]1CC[C@@H]2C(=O)NC(c1ccccc1)c1ccc(O)cc1 (stereo partly drawn) [Example 15, 17β-[N-(4-Hydroxybenzhydryl)carbamoyl]androsta-3,5-diene-3-carboxylic acid] | 73.3
C[C@]12CC[C@H]3[C@@H](CC=C4C=C(C(=O)O)CC[C@@]43C)[C@@H]1CC[C@@H]2C(=O)NC(c1ccc(F)cc1)c1ccc(F)cc1 [Example 16, 17β-[N-(4,4'-Difluorobenzhydryl)carbamoyl]androsta-3,5-diene-3-carboxylic acid] | 81.7
C[C@]12CC[C@H]3[C@@H](CC=C4C=C(C(=O)O)CC[C@@]43C)[C@@H]1CC[C@@H]2C(=O)NC(Cc1ccccc1)c1ccccc1 (stereo partly drawn) [Example 6, 17β-[N-(1,2-Diphenylethyl)carbamoyl]androsta-3,5-diene-3-carboxylic acid] | 89.4
CC(C)(C)NC(=O)[C@H]1CC[C@H]2[C@@H]3CC=C4C=C(C(=O)O)CC[C@]4(C)[C@H]3CC[C@]12C [Compound B, 17β-t-butylcarbamoylandrosta-3,5-diene-3-carboxylic acid, reference compound] | 28.1
C[C@]12CC[C@H]3[C@@H](CC=C4C=C(C(=O)O)CC[C@@]43C)[C@@H]1CC[C@@H]2C(=O)NC(c1ccccc1)c1ccccc1 [Example 1, 17β-[N-(Diphenylmethyl)carbamoyl]androsta-3,5-diene-3-carboxylic acid] | 70.6
COc1ccc(C(NC(=O)[C@H]2CC[C@H]3[C@@H]4CC=C5C=C(C(=O)O)CC[C@]5(C)[C@H]4CC[C@]23C)c2ccccc2)cc1 (stereo partly drawn) [Example 21, 17β-[N-(4-Methoxybenzhydryl)carbamoyl]androsta-3,5-diene-3-carboxylic acid] | 84.9
C[C@]12CC[C@H]3[C@@H](CC=C4C=C(C(=O)O)CC[C@@]43C)[C@@H]1CC[C@@H]2C(=O)N(Cc1ccccc1)Cc1ccccc1 [Example 25, 17β-(N,N-Dibenzylcarbamoyl)androsta-3,5-diene-3-carboxylic acid] | 79.3
